Where two headings read alike, the source gives them in different places. Non-standard residues stand in square brackets, D forms with d. Residues, ends and D or L forms follow the SMILES beside them. Ala(4-thiazolyl) = N[C@@H](Cc1cscn1)C(=O)O; 1Nal = N[C@@H](Cc1cccc2ccccc12)C(=O)O; Phe(2-F) = N[C@@H](Cc1ccccc1F)C(=O)O; Nle = CCCC[C@H](N)C(=O)O

Experimental findings from patent US9932381B2, “Exendin-4 derivatives as selective glucagon receptor agonists” (priority 2014, dated 2018) are described below.

For the experiment, the target named is T1, human glucagon receptor (hGLUC R) (Homo sapiens, UniProt P47871).
T1 construct: expressed in transfected cells; host or cells: HEK-293
T1 sequence (P47871 26-477): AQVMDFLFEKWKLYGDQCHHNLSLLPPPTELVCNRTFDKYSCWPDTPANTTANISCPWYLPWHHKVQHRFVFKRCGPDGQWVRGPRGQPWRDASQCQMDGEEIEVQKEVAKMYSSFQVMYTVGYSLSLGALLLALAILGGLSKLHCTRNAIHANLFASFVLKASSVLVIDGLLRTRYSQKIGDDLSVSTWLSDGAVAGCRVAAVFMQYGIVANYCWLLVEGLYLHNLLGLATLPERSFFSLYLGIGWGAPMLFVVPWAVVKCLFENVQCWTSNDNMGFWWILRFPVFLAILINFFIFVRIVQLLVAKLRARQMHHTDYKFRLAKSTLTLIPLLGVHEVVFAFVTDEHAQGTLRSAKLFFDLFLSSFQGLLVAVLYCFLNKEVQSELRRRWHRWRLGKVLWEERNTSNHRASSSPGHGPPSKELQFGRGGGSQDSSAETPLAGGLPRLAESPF
Description: cAMP response (HTRF) of HEK-293 cells stably expressing human glucagon receptor. Type of experiment: cell-based. The procedure:
cAMP content of cells was determined using a kit from Cisbio Corp. (cat. no. 62AM4PEC) based on HTRF (Homogenous Time Resolved Fluorescence). For preparation, cells were split into T175 culture flasks and grown overnight to near confluency in medium (DMEM/10% FBS). Medium was then removed and cells washed with PBS lacking calcium and magnesium, followed by proteinase treatment with accutase (Sigma-Aldrich cat. no. A6964). Detached cells were washed and resuspended in assay buffer (1×HBSS; 20 mM HEPES, 0.1% BSA, 2 mM IBMX) and cellular density determined. They were then diluted to 400000 cells/ml and 25 μl-aliquots dispensed into the wells of 96-well plates. For measurement, 25 μl of test compound in assay buffer was added to the wells, followed by incubation for 30 minutes at room temperature.
(In general: TR-FRET usually uses a lanthanide donor and a delayed reading to cut background.)

Where [1] appears, read: Table 5, Tza vs. His in position 1, read-out: EC50 hGlucagon-R.
The mark [2] stands for this setting: Table 4, read-out: EC50 hGLUC R.

Regarding `CC[C@H](C)[C@H](NC(=O)[C@H](Cc1ccccc1)NC(=O)[C@H](CCC(=O)O)NC(=O)[C@H](CCC(N)=O)NC(=O)[C@H](C)NC(=O)[C@H](CCCNC(=N)N)NC(=O)[C@H](CCCNC(=N)N)NC(=O)[C@H](CO)NC(=O)[C@H](CCC(=O)O)NC(=O)[C@H](CC(C)C)NC(=O)[C@H](CCC(N)=O)NC(=O)[C@H](CCCCN)NC(=O)[C@H](CO)NC(=O)[C@H](Cc1ccc(O)cc1)NC(=O)[C@H](CC(=O)O)NC(=O)[C@H](CO)NC(=O)[C@@H](NC(=O)[C@H](Cc1ccccc1)NC(=O)[C@@H](NC(=O)CNC(=O)[C@H](CCC(N)=O)NC(=O)[C@H](CO)NC(=O)[C@@H](N)Cc1c[nH]cn1)[C@@H](C)O)[C@@H](C)O)C(=O)N[C@@H](CCC(=O)O)C(=O)N[C@@H](Cc1c[nH]c2ccccc12)C(=O)N[C@@H](CC(C)C)C(=O)N[C@@H](CC(C)C)C(=O)N[C@@H](C)C(=O)NCC(=O)NCC(=O)N1CCC[C@H]1C(=O)N[C@@H](CCC(=O)O)C(=O)N[C@@H](CO)C(=O)NCC(=O)N[C@@H](C)C(=O)N1CCC[C@H]1C(=O)N1CCC[C@H]1C(=O)N1CCC[C@H]1C(=O)N[C@@H](CO)C(=O)O` [SEQ ID NO 28, HSQGTFTSDYSKQLESRRAQEFIEWLLAGGPESGAPPPS-OH, reference compound], the EC50 under setting [1] turned out to be 1 pM.

Take `CCCC[C@H](NC(=O)[C@H](CCC(N)=O)NC(=O)[C@H](CCCCN)NC(=O)[C@H](CO)NC(=O)[C@H](CC(C)C)NC(=O)[C@H](CC(=O)O)NC(=O)[C@H](CO)NC(=O)[C@@H](NC(=O)[C@H](Cc1ccccc1)NC(=O)[C@@H](NC(=O)CNC(=O)[C@H](CCC(N)=O)NC(=O)[C@H](CO)NC(=O)[C@@H](N)Cc1c[nH]cn1)[C@@H](C)O)[C@@H](C)O)C(=O)N[C@@H](CCC(=O)O)C(=O)N[C@@H](CO)C(=O)N[C@@H](CCCNC(=N)N)C(=O)N[C@@H](CCCNC(=N)N)C(=O)N[C@@H](C)C(=O)N[C@@H](CCC(N)=O)C(=O)N[C@@H](CCC(=O)O)C(=O)N[C@@H](Cc1ccccc1)C(=O)N[C@H](C(=O)N[C@@H](CCC(=O)O)C(=O)N[C@@H](Cc1c[nH]c2ccccc12)C(=O)N[C@@H](CC(C)C)C(=O)N[C@@H](CC(C)C)C(=O)N[C@@H](C)C(=O)N[C@H](C(=O)NCC(=O)N1CCC[C@H]1C(=O)N[C@@H](CCC(=O)O)C(=O)N[C@@H](CO)C(=O)NCC(=O)N[C@@H](C)C(=O)N1CCC[C@H]1C(=O)N1CCC[C@H]1C(=O)N1CCC[C@H]1C(=O)N[C@@H](CO)C(=O)O)[C@@H](C)O)[C@@H](C)CC` [SEQ ID NO 36, H-S-Q-G-T-F-T-S-D-L-S-K-Q-Nle-ESRRAQEFIEWLLATGPESGAPPPS-OH, reference compound] (H-HSQGTFTSDLSKQ[Nle]ESRRAQEFIEWLLATGPESGAPPPS-OH): the EC50 under setting [1] was found to be 1.4 pM.

As to `CCCC[C@H](NC(=O)[C@H](CCC(N)=O)NC(=O)[C@H](CCCCN)NC(=O)[C@H](CO)NC(=O)[C@H](Cc1ccc(O)cc1)NC(=O)[C@H](CC(=O)O)NC(=O)[C@H](CO)NC(=O)[C@@H](NC(=O)[C@H](Cc1ccccc1)NC(=O)[C@@H](NC(=O)CNC(=O)[C@H](CCC(N)=O)NC(=O)[C@H](CO)NC(=O)[C@@H](N)Cc1cscn1)[C@@H](C)O)[C@@H](C)O)C(=O)N[C@@H](CCC(=O)O)C(=O)N[C@@H](CO)C(=O)N[C@@H](CCCNC(=N)N)C(=O)N[C@@H](CCCNC(=N)N)C(=O)N[C@@H](C)C(=O)N[C@@H](CCC(N)=O)C(=O)N[C@@H](CCC(=O)O)C(=O)N[C@@H](Cc1ccccc1)C(=O)N[C@H](C(=O)N[C@@H](CCC(=O)O)C(=O)N[C@@H](Cc1c[nH]c2ccccc12)C(=O)N[C@@H](CC(C)C)C(=O)N[C@@H](CC(C)C)C(=O)N[C@@H](C)C(=O)N[C@H](C(=O)NCC(=O)N1CCC[C@H]1C(=O)N[C@@H](CCC(=O)O)C(=O)N[C@@H](CO)C(=O)NCC(=O)N[C@@H](C)C(=O)N1CCC[C@H]1C(=O)N1CCC[C@H]1C(=O)N1CCC[C@H]1C(=O)N[C@@H](CO)C(=O)O)[C@@H](C)O)[C@@H](C)CC` [SEQ ID NO 17, Tza-S-Q-G-T-F-T-S-D-Y-S-K-Q-Nle-ESRRAQEFIEWLLATGPESGAPPPS-OH], the 50% effective concentration (EC50) under setting [2] is 1 pM.

`CCCC[C@H](NC(=O)[C@H](CCC(N)=O)NC(=O)[C@H](CCCCN)NC(=O)[C@H](CO)NC(=O)[C@H](Cc1ccccc1F)NC(=O)[C@H](CC(=O)O)NC(=O)[C@H](CO)NC(=O)[C@@H](NC(=O)[C@H](Cc1ccccc1)NC(=O)[C@@H](NC(=O)CNC(=O)[C@H](CCC(N)=O)NC(=O)[C@H](CO)NC(=O)[C@@H](N)Cc1cscn1)[C@@H](C)O)[C@@H](C)O)C(=O)N[C@@H](CCC(=O)O)C(=O)N[C@@H](CO)C(=O)N[C@@H](CCCNC(=N)N)C(=O)N[C@@H](CCCNC(=N)N)C(=O)N[C@@H](C)C(=O)N[C@@H](CCC(N)=O)C(=O)N[C@@H](CC(=O)O)C(=O)N[C@@H](Cc1ccccc1)C(=O)N[C@H](C(=O)N[C@@H](CCC(=O)O)C(=O)N[C@@H](Cc1c[nH]c2ccccc12)C(=O)N[C@@H](CC(C)C)C(=O)N[C@@H](CC(C)C)C(=O)N[C@@H](C)C(=O)N[C@H](C(=O)NCC(=O)N1CCC[C@H]1C(=O)N[C@@H](CCC(=O)O)C(=O)N[C@@H](CO)C(=O)NCC(=O)N[C@@H](C)C(=O)N1CCC[C@H]1C(=O)N1CCC[C@H]1C(=O)N1CCC[C@H]1C(=O)N[C@@H](CO)C(=O)O)[C@@H](C)O)[C@@H](C)CC` [SEQ ID NO 18, Tza-S-Q-G-T-F-T-S-D-2FPhe-S-K-Q-Nle-ESRRAQDFIEWLLATGPESGAPPPS-OH] (H-[Ala(4-thiazolyl)]SQGTFTSD[Phe(2-F)]SKQ[Nle]ESRRAQDFIEWLLATGPESGAPPPS-OH): the EC50 under setting [2] worked out at 3.1 pM.

“H-HSQGTFTSDLSKQLESRRAQEFIEWLLATGPESGAPPPS-OH [SEQ ID NO 34, HSQGTFTSDLSKQLESRRAQEFIEWLLATGPESGAPPPS-OH, reference compound]”: the EC50 under setting [1] came to 1.4 pM.

Regarding `CCCC[C@H](NC(=O)[C@H](CCC(N)=O)NC(=O)[C@H](CCCCN)NC(=O)[C@H](CO)NC(=O)[C@H](Cc1ccccc1)NC(=O)[C@H](CC(=O)O)NC(=O)[C@H](CO)NC(=O)[C@@H](NC(=O)[C@H](Cc1ccccc1)NC(=O)[C@@H](NC(=O)CNC(=O)[C@H](CCC(N)=O)NC(=O)[C@H](CO)NC(=O)[C@@H](N)Cc1cscn1)[C@@H](C)O)[C@@H](C)O)C(=O)N[C@@H](CCC(=O)O)C(=O)N[C@@H](CO)C(=O)N[C@@H](CCCNC(=N)N)C(=O)N[C@@H](CCCNC(=N)N)C(=O)N[C@@H](C)C(=O)N[C@@H](CCC(N)=O)C(=O)N[C@@H](CC(=O)O)C(=O)N[C@@H](Cc1ccccc1)C(=O)N[C@H](C(=O)N[C@@H](CCC(=O)O)C(=O)N[C@@H](Cc1c[nH]c2ccccc12)C(=O)N[C@@H](CC(C)C)C(=O)N[C@@H](CC(C)C)C(=O)N[C@@H](C)C(=O)N[C@H](C(=O)NCC(=O)N1CCC[C@H]1C(=O)N[C@@H](CCC(=O)O)C(=O)N[C@@H](CO)C(=O)NCC(=O)N[C@@H](C)C(=O)N1CCC[C@H]1C(=O)N1CCC[C@H]1C(=O)N1CCC[C@H]1C(=O)N[C@@H](CO)C(=O)O)[C@@H](C)O)[C@@H](C)CC` [SEQ ID NO 13, Tza-S-Q-G-T-F-T-S-D-F-S-K-Q-Nle-ESRRAQDFIEWLLATGPESGAPPPS-OH] (H-[Ala(4-thiazolyl)]SQGTFTSDFSKQ[Nle]ESRRAQDFIEWLLATGPESGAPPPS-OH; N-terminus assumed), the EC50 under setting [2] is 3.1 pM.

Turning to `CC[C@H](C)[C@H](NC(=O)[C@H](Cc1ccccc1)NC(=O)[C@H](CC(=O)O)NC(=O)[C@H](CCC(N)=O)NC(=O)[C@H](C)NC(=O)[C@H](CCCNC(=N)N)NC(=O)[C@H](CCCNC(=N)N)NC(=O)[C@H](CO)NC(=O)[C@H](CCC(=O)O)NC(=O)[C@H](CC(C)C)NC(=O)[C@H](CCC(N)=O)NC(=O)[C@H](CCCCN)NC(=O)[C@H](CO)NC(=O)[C@H](Cc1cccc2ccccc12)NC(=O)[C@H](CC(=O)O)NC(=O)[C@H](CO)NC(=O)[C@@H](NC(=O)[C@H](Cc1ccccc1)NC(=O)[C@@H](NC(=O)CNC(=O)[C@H](CCC(N)=O)NC(=O)[C@H](CO)NC(=O)[C@@H](N)Cc1cscn1)[C@@H](C)O)[C@@H](C)O)C(=O)N[C@@H](CCC(=O)O)C(=O)N[C@@H](Cc1c[nH]c2ccccc12)C(=O)N[C@@H](CC(C)C)C(=O)N[C@@H](CC(C)C)C(=O)N[C@@H](C)C(=O)N[C@H](C(=O)NCC(=O)N1CCC[C@H]1C(=O)N[C@@H](CCC(=O)O)C(=O)N[C@@H](CO)C(=O)NCC(=O)N[C@@H](C)C(=O)N1CCC[C@H]1C(=O)N1CCC[C@H]1C(=O)N1CCC[C@H]1C(=O)N[C@@H](CO)C(=O)O)[C@@H](C)O` [SEQ ID NO 22, Tza-S-Q-G-T-F-T-S-D-1Nal-SKQLESRRAQDFIEWLLATGPESGAPPPS-OH] (H-[Ala(4-thiazolyl)]SQGTFTSD[1Nal]SKQLESRRAQDFIEWLLATGPESGAPPPS-OH; N-terminus assumed), the EC50 under setting [2] came out at 1 pM.

One may read the EC50 as the concentration giving half of the maximal effect.
